Measurements reported in patent publication US12247004B2, “2-amino-N-(amino-oxo-aryl-lambda6-sulfanylidene)acetamide compounds and their therapeutic use” (Oxford Drug Design Limited, priority 2019, dated 2025).
In brackets after ≈: the same amount, converted by molar mass. Where a name gives a salt, the structure may show the parent alone. Read-outs that look alike come from different tables or passages of the source. One block for each compound: values may come before it.

Tests used:
[1] = molecular target: Leucyl-tRNA synthetase (LeuRS) (Escherichia coli (strain K12), UniProt P07813); assay: Leucyl-tRNA synthetase enzyme inhibition (AMP-Glo; single point % inhibition at 100 μM and IC50); format: biochemical
Chain of Leucyl-tRNA synthetase (LeuRS) (P07813 whole entry, looked up): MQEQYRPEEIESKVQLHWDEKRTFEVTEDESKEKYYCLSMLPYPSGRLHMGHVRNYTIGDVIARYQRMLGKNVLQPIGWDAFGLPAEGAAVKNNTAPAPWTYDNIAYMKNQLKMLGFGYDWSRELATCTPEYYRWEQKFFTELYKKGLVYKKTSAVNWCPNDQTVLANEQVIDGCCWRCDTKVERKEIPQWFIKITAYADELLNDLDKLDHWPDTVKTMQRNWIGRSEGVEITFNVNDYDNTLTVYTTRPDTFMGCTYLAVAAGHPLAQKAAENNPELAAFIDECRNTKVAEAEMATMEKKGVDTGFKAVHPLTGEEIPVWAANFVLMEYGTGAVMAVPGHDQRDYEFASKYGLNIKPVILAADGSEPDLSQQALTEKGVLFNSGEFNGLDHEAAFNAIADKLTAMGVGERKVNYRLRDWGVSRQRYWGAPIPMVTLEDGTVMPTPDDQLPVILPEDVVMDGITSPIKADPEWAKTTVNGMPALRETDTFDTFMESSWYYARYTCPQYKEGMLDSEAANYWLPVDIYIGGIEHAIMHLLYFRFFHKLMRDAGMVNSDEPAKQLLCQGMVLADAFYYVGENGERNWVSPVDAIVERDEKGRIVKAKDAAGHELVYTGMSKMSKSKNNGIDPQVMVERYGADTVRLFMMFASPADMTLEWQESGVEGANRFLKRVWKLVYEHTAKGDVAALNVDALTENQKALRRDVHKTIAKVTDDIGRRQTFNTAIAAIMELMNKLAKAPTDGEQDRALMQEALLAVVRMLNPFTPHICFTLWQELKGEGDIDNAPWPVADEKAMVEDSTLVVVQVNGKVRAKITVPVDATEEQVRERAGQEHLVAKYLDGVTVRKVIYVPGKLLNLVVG
Text: Study 1—Enzyme Inhibition
The aminoacylation reaction catalyzed by aminoacyl-tRNA synthetases (aaRS) takes place in two steps. In the first step, aaRS activates its cognate amino acid with ATP; and in the second step the activated amino acid is loaded to its corresponding tRNA. This reaction can be summarized as follows: aaRS+aa+ATP=aaRS-aa-AMP+PPi aaRS-aa-AMP+tRNA=aa-tRNA+AMP+aaRS
wherein: aaRS, aminoacyl-tRNA synthetase; aa, amino acid; aaRS-aa-AMP, enzyme-bound to aminoacyl-adenylate; AMP, adenosine monophosphate; aa-tRNA, aminoacyl-tRNA, PPi, inorganic pyrophosphate.
a. Single Point Percentage Inhibition
The activity of the pathogenic aaRSs was monitored by measuring AMP production using the commercial kit AMP-Glo (Promega, Madison, USA).
Ligand stock solutions were prepared in 100% DMSO at 10 mM concentration. An assay buffer consisting of 100 mM Tris HCl pH 7.6, 40 mM MgCl, 20 mM KCl and 150 mM NaCl was prepared in dH2O.
Using the same enzymatic assay in a 384-well plate format, ten point concentration response curves were generated for each compound using a top concentration of 10 μM. The known inhibitor LeuAMS was used as a positive control for the LeuRS assay. 100% DMSO was used as a negative control. The IC50 was calculated based on non-linear regression analysis.

[2] = system: bacteria (ATCC reference strains); assay: Antibacterial activity, MIC by broth micro-dilution (CLSI)
[3] = Acinetobacter baumannii, read-out: Antibacterial Activity (MIC), E = A. baumannii B1931
[4] = Enterobacter cloacae, read-out: Antibacterial Activity (MIC), B = Enterobacter cloacae B1966
[5] = Escherichia coli, ATCC25922, read-out: Antibacterial Activity (MIC), A = E. coli ATCC 25922
[6] = Escherichia coli, BAA2469, read-out: Antibacterial Activity (MIC), G = E. coli BAA-2469
[7] = Haemophilus influenzae, ATCC49247, read-out: Antibacterial Activity (MIC), F = H. influenzae ATCC 49247
[8] = Klebsiella pneumoniae, ATCC700603, read-out: Antibacterial Activity (MIC), C = K. pneumoniae ATCC 700603
[9] = Pseudomonas aeruginosa, ATCC27853, read-out: Antibacterial Activity (MIC), D = P. aeruginosa ATCC 27853
[10] = E. coli LeuRS, read-out: Enzyme Inhibition - IC50, E. coli LeuRS

SMILES: CC(C)C[C@H](N)C(=O)N=S(N)(=O)c1nc(Cl)cs1 (mixture of isomers) [ANASIA-045]
IC50 [1]: 5.52 µM

SMILES: CC(C)C[C@H](N)C(=O)N=[S@](N)(=O)c1cccs1.Cl (single isomer, unassigned) [ANASIA-007-1]
MIC [2, 3]: 8 µg/mL
MIC [2, 4]: 8 µg/mL
MIC [2, 5]: 1 µg/mL
MIC [2, 6]: 5.04 µg/mL
MIC [2, 7]: 2 µg/mL
MIC [2, 8]: 8 µg/mL
MIC [2, 9]: 16 µg/mL

MIC [2, 3]: 32 µg/mL (≈ 116 µM)
MIC [2, 4]: > 64 µg/mL
MIC [2, 5]: 4 µg/mL (≈ 14.5 µM)
MIC [2, 6]: 64 µg/mL (≈ 232 µM)
MIC [2, 8]: > 64 µg/mL
MIC [2, 9]: 64 µg/mL (≈ 232 µM)
SMILES: Cc1csc([S@@](N)(=O)=NC[C@@H](N)CC(C)C)n1 [ANASIA-004-1]

SMILES: CN[S@@](=O)(=NC(=O)[C@@H](N)CC(C)C)c1ccccc1 [ANASIA-010-1, (S)-2-amino-4-methyl-N—((S)-(methylamino)(oxo)(phenyl)-λ6-sulfanylidene)pentanamide]
IC50 [1]: 9.15 µM

SMILES: CC(C)C[C@H](N)C(=O)N=[S@@](N)(=O)c1cccc(Br)c1 [ANASIA-044-2]
IC50 [1, 10]: 2.16 µM

MIC [2, 3]: 64 µg/mL
MIC [2, 4]: > 64 µg/mL
MIC [2, 5]: 4 µg/mL
MIC [2, 6]: 45.3 µg/mL
MIC [2, 8]: > 64 µg/mL
MIC [2, 9]: > 64 µg/mL
SMILES: CC(C)C[C@H](N)C(=O)N=[S@](N)(=O)c1nc(Cl)cs1.Cl [ANASIA-045-1]

SMILES: CC(C)C[C@H](N)C(=O)N=S(N)(=O)c1ccc2c(c1)CCO2 (stereo partly shown) [ANASIA-048]
IC50 [1, 10]: 6.53 µM

SMILES: CC(C)C[C@H](N)C(=O)N=[S@@](N)(=O)c1cccc(C(C)(C)C)c1 [ANASIA-049-2]
IC50 [1, 10]: 2.63 µM

SMILES: N[C@@H](CC1CC1)C(=O)N=[S@](N)(=O)c1ccccc1 [ANASIA-050-1]
IC50 [1]: 4.33 µM

SMILES: CC(C)C[C@H](N)C(=O)N=S(N)(=O)c1ccncc1 (stereo partly drawn) [ANASIA-059-1, (2S)-2-amino-N-(amino(oxo)(pyridin-4-yl)-λ^6-sulfanylidene)-4-methylpentanamide]
inhibition at 10 µM ([1]; read-out: Enzyme inhibition, E. coli LeuRS, % at 10 μM): 46%

SMILES: CC(C)C[C@H](N)C(=O)N=[S@@](N)(=O)c1cc(F)cs1 [ANASIA-062-2]
IC50 [1, 10]: 0.715 µM

SMILES: CC(C)C[C@H](N)C(=O)N=S(N)(=O)c1cc(C#N)ccc1F (stereo partly shown) [ANASIA-065]
IC50 [1, 10]: 0.67 µM

SMILES: CC(C)C[C@H](N)C(=O)N=[S@](N)(=O)c1cc(-c2ccccc2)cs1 [ANASIA-067-1]
IC50 [1]: 1.92 µM

SMILES: CC(C)C[C@H](N)C(=O)N=S(N)(=O)c1ccn(C)n1 (stereo partly shown) [ANASIA-073]
IC50 [1]: 0.238 µM

SMILES: CC(C)C[C@H](N)C(=O)N=[S@@](N)(=O)c1ccccn1 [ANASIA-075-2]
IC50 [1, 10]: 2.54 µM

SMILES: CC(C)C[C@H](N)C(=O)N=S(N)(=O)c1sc(Cl)nc1Cl (stereo partly shown) [ANASIA-076]
IC50 [1, 10]: 2.26 µM

SMILES: CC(C)C[C@H](N)C(=O)N=[S@@](N)(=O)c1scc(Cl)c1Cl [ANASIA-081-2]
IC50 [1, 10]: 0.488 µM

SMILES: CC(C)C[C@H](N)C(=O)N=S(N)(=O)c1cc2sccc2s1 (stereo partly shown) [ANASIA-082]
IC50 [1, 10]: 0.449 µM

SMILES: CC(C)C[C@H](N)C(=O)N=[S@@](N)(=O)c1csc2ccccc12 [ANASIA-083-2]
IC50 [1, 10]: 2.3 µM

SMILES: C=CCc1cccc(S(N)(=O)=NC(=O)[C@@H](N)CC(C)C)c1 (stereo partly drawn) [ANASIA-085, (2S)—N-((3-allylphenyl)(amino)(oxo)-λ6-sulfanylidene)-2-amino-4-methylpentanamide hydrochloride]
IC50 [1, 10]: 0.594 µM

SMILES: Cc1ccccc1[S@@](N)(=O)=NC(=O)[C@@H](N)CC(C)C [ANASIA-086-1]
IC50 [1]: 3.33 µM

SMILES: CC(C)C[C@H](N)C(=O)N=[S@](N)(=O)c1ccccc1F [ANASIA-087-2]
IC50 [1, 10]: 4.92 µM

SMILES: CC(C)C[C@H](N)C(=O)N=[S@@](N)(=O)c1cccc(OC(F)F)c1 [ANASIA-088-2]
IC50 [1, 10]: 1.56 µM

SMILES: CC(C)C[C@H](N)C(=O)N=[S@@](N)(=O)c1cccc(C(F)(F)F)c1 [ANASIA-089-2]
IC50 [1]: 2.39 µM

SMILES: CC(C)C[C@H](N)C(=O)N=S(N)(=O)c1cccc(OC(F)(F)F)c1 (stereo partly shown) [ANASIA-090]
IC50 [1, 10]: 0.199 µM

SMILES: Cc1sccc1[S@](N)(=O)=NC(=O)[C@@H](N)CC(C)C [ANASIA-091-2]
IC50 [1, 10]: 8.15 µM

SMILES: CC(C)C[C@H](N)C(=O)N=[S@@](N)(=O)c1ccsc1Cl [ANASIA-092-2]
IC50 [1, 10]: 1.97 µM

SMILES: CC(C)C[C@H](N)C(=O)N=S(N)(=O)c1ccsc1C(N)=O (stereo partly drawn) [ANASIA-093, 3-(N′-(L-leucyl)sulfamidimidoyl)thiophene-2-carboxamide hydrochloride]
IC50 [1, 10]: 1.33 µM

SMILES: Cc1csc([S@](N)(=O)=NC(=O)[C@@H](N)CC(C)C)c1 [ANASIA-095-2]
IC50 [1, 10]: 1.89 µM

SMILES: CC(C)C[C@H](N)C(=O)N=S(N)(=O)c1cscc1C#N (stereo partly shown) [ANASIA-096]
IC50 [1, 10]: 0.7 µM

SMILES: CC(C)C[C@H](N)C(=O)N=S(N)(=O)c1cscc1C(N)=O (stereo partly drawn) [ANASIA-097, 4-(N′-(L-leucyl)sulfamidimidoyl)thiophene-3-carboxamide 2,2,2-trifluoroacetate]
IC50 [1, 10]: 2.16 µM

SMILES: Cc1cc([S@](N)(=O)=NC(=O)[C@@H](N)CC(C)C)cs1 [ANASIA-098-2]
IC50 [1, 10]: 5.14 µM

SMILES: CC(C)C[C@H](N)C(=O)N=[S@@](N)(=O)c1csc(Cl)c1 [ANASIA-099-2]
IC50 [1, 10]: 0.511 µM

SMILES: CC(C)C[C@H](N)C(=O)N=S(N)(=O)c1csc(Cl)c1 (stereo partly shown) [ANASIA-099]
MIC [2, 3]: 32 µg/mL (≈ 103 µM)
MIC [2, 5]: 1 µg/mL (≈ 3.23 µM)
MIC [2, 6]: 2.83 µg/mL (≈ 9.13 µM)
MIC [2, 7]: 2 µg/mL (≈ 6.45 µM)
MIC [2, 8]: 16 µg/mL (≈ 51.6 µM)
MIC [2, 9]: > 64 µg/mL

SMILES: CC(C)C[C@H](N)C(=O)N=[S@@](N)(=O)c1csc2ccsc12 [ANASIA-100-2]
IC50 [1, 10]: 0.945 µM

SMILES: Cc1csc([S@](N)(=O)=NC(=O)[C@@H](N)CC(C)C)c1C [ANASIA-104-2]
IC50 [1, 10]: 3.25 µM

SMILES: C=Cc1ccsc1S(N)(=O)=NC(=O)[C@@H](N)CC(C)C (stereo partly drawn) [ANASIA-106, (2S)-2-amino-N-(amino(oxo)(3-vinylthiophen-2-yl)-λ6-sulfanylidene)-4-methylpentanamide hydrochloride]
IC50 [1, 10]: 0.897 µM

SMILES: CC(C)C[C@H](N)C(=O)N=[S@@](N)(=O)c1scc(Br)c1Br [ANASIA-107-2]
IC50 [1, 10]: 1.29 µM

SMILES: COc1ccsc1[S@](N)(=O)=NC(=O)[C@@H](N)CC(C)C [ANASIA-108-2]
IC50 [1, 10]: 4.31 µM

SMILES: CC(C)C[C@H](N)C(=O)N=[S@](N)(=O)c1sccc1C(C)C [ANASIA-110-1]
IC50 [1]: 0.425 µM

SMILES: CC(C)C[C@H](N)C(=O)N=[S@@](N)(=O)c1sccc1C(C)C [ANASIA-110-2]
IC50 [1, 10]: 6.24 µM

MIC [2, 3]: 16 µg/mL (≈ 21.4 µM)
MIC [2, 4]: 16 µg/mL (≈ 21.4 µM)
MIC [2, 5]: 4 µg/mL (≈ 5.34 µM)
MIC [2, 7]: 2 µg/mL (≈ 2.67 µM)
MIC [2, 8]: 32 µg/mL (≈ 42.7 µM)
MIC [2, 9]: 32 µg/mL (≈ 42.7 µM)
SMILES: CC[C@H]1OC(=O)[C@H](C)[C@@H](O[C@H]2C[C@@](C)(OC)[C@@H](O)[C@H](C)O2)[C@H](C)[C@@H](O[C@@H]2O[C@H](C)C[C@H](N(C)C)[C@H]2O)[C@](C)(O)C[C@@H](C)CN(C)[C@H](C)[C@@H](O)[C@]1(C)O [Azithromycin]

Antibacterial Activity (MIC), E = A. baumannii B1931 [2]: 2 µg/mL
Antibacterial Activity (MIC), A = E. coli ATCC 25922 [2]: 0.25 µg/mL
Antibacterial Activity (MIC), G = E. coli BAA-2469 [2]: >64.0 µg/mL
Antibacterial Activity (MIC), B = Enterobacter cloacae B1966 [2]: 0.5 µg/mL
Antibacterial Activity (MIC), F = H. influenzae ATCC 49247 [2]: 16 µg/mL
Antibacterial Activity (MIC), C = K. pneumoniae ATCC 700603 [2]: >64 µg/mL
Antibacterial Activity (MIC), D = P. aeruginosa ATCC 27853 [2]: >64 µg/mL
SMILES: CC(C)(O/N=C(\C(=O)N[C@@H]1C(=O)N2C(C(=O)[O-])=C(C[n+]3ccccc3)CS[C@H]12)c1csc(N)n1)C(=O)O [Ceftazidime]

Antibacterial Activity (MIC), E = A. baumannii B1931 [2]: 8 µg/mL
Antibacterial Activity (MIC), A = E. coli ATCC 25922 [2]: 0.5 µg/mL
Antibacterial Activity (MIC), G = E. coli BAA-2469 [2]: >62.0 µg/mL
Antibacterial Activity (MIC), B = Enterobacter cloacae B1966 [2]: 0.5 µg/mL
Antibacterial Activity (MIC), F = H. influenzae ATCC 49247 [2]: 4 µg/mL
Antibacterial Activity (MIC), C = K. pneumoniae ATCC 700603 [2]: 0.5 µg/mL
Antibacterial Activity (MIC), D = P. aeruginosa ATCC 27853 [2]: >64 µg/mL
SMILES: C[C@@H](O)[C@H]1C(=O)N2C(C(=O)O)=C(S[C@@H]3CN[C@H](C(=O)N(C)C)C3)[C@H](C)[C@H]12 [Meropenem]
